“And” between values parts separate entries of the source, which are not always exact repeats. Equal values may be shown once.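 Results reflect a 48-hour exposure of cells in 96-well plates to compound at five concentrations. The concentration for 50% growth inhibition is given as GI50. TGI: total growth inhibition.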
How the values were obtained:
Experiment in all cases: NCI-60 cell line screen, 48 h
[1] = system: HCT-116 colon
[2] = system: HCT-15 colon
[3] = system: HT29 colon
[4] = system: LOX IMVI melanoma
[5] = system: M14 melanoma
[6] = system: OVCAR-4 ovarian
[7] = system: SF-539 CNS
[8] = system: SK-OV-3 ovarian
[9] = system: SNB-75 CNS
[10] = system: U251 CNS

Row | SMILES | TGI [1] [µM] | TGI [2] [µM] | TGI [3] [µM] | TGI [4] [µM] | TGI [5] [µM] | TGI [6] [µM] | TGI [7] [µM] | TGI [8] [µM] | TGI [9] [µM] | TGI [10] [µM] | GI50 [1] [µM] | GI50 [2] [µM] | GI50 [3] [µM] | GI50 [4] [µM] | GI50 [5] | GI50 [6] [µM] | GI50 [7] [µM] | GI50 [8] | GI50 [9] [µM] | GI50 [10] [µM]
1 | COc1ccc(/C=C\c2cc(OC)c(OC)c(OC)c2)cc1OCC(=O)O | 31.5 | 80.8 | > 100 | > 100 | 62.9 | > 86.1 | 11.5 | 94 | > 58.7 | 39.6 |  |  |  |  |  |  |  |  |  | 
2 | O=Cc1cc2c(cc1-c1cc3c(cc1C=O)OCO3)OCO2 | > 100 | > 100 | > 100 | 56.3 | > 100 | > 100 | > 100 | > 100 | > 100 | > 100 |  |  |  |  |  |  |  |  |  | 
3 | O=c1[nH]c(=O)n(C2CC(O)C(CO)O2)cc1OS(=O)(=O)C(F)(F)F (centres undefined) | > 100 | > 100 | > 100 | > 100 | > 100 | > 100 | > 100 | > 100 | > 100 | > 100 |  |  |  |  |  |  |  |  |  | 
4 | COc1cc(OC)c(OC)cc1/C=N/NC(=O)N/N=C/c1cc(OC)c(OC)cc1OC | > 100 | > 100 | > 100 | > 100 | > 100 | > 100 | > 100 | > 100 | 52.3 | > 100 |  |  |  |  |  |  |  |  |  | 
5 | COc1ccc(CNc2c3ccccc3nc3ccccc23)cc1F | 12.3 | 7.8 | 10.3 | 3.63 | 3.59 | 12.5 | 10.7 | 16.3 | 15.2 | 15.5 | 2.92 | 2.45 | 2.58 | 1.76 | 1.79 µM | 3.28 | 3.04 | 3.66 µM | 3.21 | 3.82
6 | Cc1nc2c(N)ncnc2o1 | > 100 | > 100 | > 100 | > 100 | > 100 | > 100 | > 100 | > 100 | > 100 | > 100 |  |  |  |  |  |  |  |  |  | 
7 | CNCCCNc1ccnc2cc(Cl)ccc12 | 41.4 | 94.4 | 55.5 | 36.6 | 34.4 | 57.4 | 33.1 | 60.8 | 82 | 62.4 | 11.2 | 23.3 | 13.4 | 16.8 | 16 µM | 18.7 | 17 | 21.9 µM | 16.4 | 22.5
8 | NC(=O)c1cc(I)ccc1NC(=O)/C=C/c1ccccc1 | > 40.3 | > 100 | > 31.8 | > 100 | > 100 | 30.5 | 1.53 | 12.8 | 8.68 | 14.6 | 0.475 | 0.587 | 0.374 | 3.18 | 0.389 µM | 1.84 | 0.36 | 0.604 µM | 0.316 | 0.504
9 | CN(C)CCN1CCC(Cc2ccccc2)CC1 | > 80 | > 80 | > 80 | > 80 | > 80 | > 80 | > 80 | > 80 | > 80 | > 80 | > 80 | > 80 | > 80 | > 80 | > 80 µM | > 80 | > 80 | > 80 µM | > 80 | > 80
10 | CC(C)=CCC1=C(O)c2ccccc2C(=O)C1=O | > 100 | > 100 | > 100 | > 100 | > 100 | > 100 | > 100 | > 100 | > 100 | > 100 |  |  |  |  | > 100 µM and 45.8 µM and 16.3 µM | 11.7 |  | > 100 µM and 47.7 µM |  | 
11 | O=C1C=C(Nc2ccc(Cl)cc2C(=O)c2ccccc2)c2ccccc2C1=O | > 100 | > 100 | > 100 | > 100 | > 100 | > 100 | > 100 | > 100 | > 100 | > 100 |  |  |  |  |  |  |  |  |  | 
12 | COc1cc(C[P+](c2ccccc2)(c2ccccc2)c2ccccc2)cc(OC)c1OC | > 100 | > 100 | > 100 | > 100 | > 100 | > 100 | > 100 | > 100 | > 100 | > 100 |  |  |  |  |  |  |  |  |  | 
13 | COc1nc(=O)n(C2C=CC(=O)O2)cc1F (centres undefined) | 4.81 | 12 | 16.7 | 22.9 | 20.6 | 15.5 | 5.77 | 62.3 | 43.1 | 29.1 | 2.05 | 2.59 | 4.63 | 10.9 | 5.82 µM | 3.09 | 2.22 | 25.8 µM | 14.3 | 14.6
14 | CCCCCCn1c(-c2ccc(C(=O)O/N=C(\N)c3ccc4c(c3)OCO4)cc2)nc(-c2ccccc2)c1-c1ccccc1 | 3.34 | 3.34 | 39.1 | 0.329 | 22.1 | 7 | 3.2 | 64.3 | 4.9 | 3.81 | 1.59 | 1.61 | 3.64 | 0.173 | 3.75 µM | 2.21 | 1.72 | 10.4 µM | 1.7 | 1.74
15 | Nc1nc(Cl)nc2c1ncn2C1CC(O)C(CO)O1 (centres undefined) | > 100 | > 100 | > 100 | 30.6 | 0.509 | > 100 | 76.8 | > 100 | > 91.9 | > 96.5 |  |  |  |  | 0.186 µM |  |  |  |  | 
16 | c1ccc(C2=NOC(c3ccccc3)N2C23CC4CC(CC(C4)C2)C3)cc1 (centres undefined) | > 10 | > 10 | > 10 | > 10 | > 10 | > 10 | > 10 | > 10 | > 10 | > 10 |  |  |  |  |  |  |  |  |  | 
17 | COc1cc2c3c(n(C)c(=O)c2cc1OC)-c1cc2c(cc1C3=O)OCO2 | > 100 | > 100 | > 100 | > 73 | > 100 | > 100 | 23.9 | > 100 | 22.6 | > 100 |  |  |  |  |  |  |  |  |  | 

Row | SMILES | TGI [1] [µM] | TGI [2] [µM] | TGI [3] [µM] | TGI [4] [µM] | TGI [5] [µM] | TGI [6] [µM] | TGI [7] [µM] | TGI [8] [µM] | TGI [9] [µM] | TGI [10] [µM] | GI50 [1] [µM] | GI50 [2] [µM] | GI50 [3] [µM] | GI50 [4] [µM] | GI50 [5] | GI50 [6] [µM] | GI50 [7] [µM] | GI50 [8] | GI50 [9] [µM] | GI50 [10] [µM]
18 | O/N=C1\CCCCC1C(NO)c1ccccc1 (centres undefined) | > 100 | > 100 | > 100 | > 100 | > 100 | > 100 | > 100 | > 100 | > 100 | > 100 |  |  |  |  |  |  |  |  |  | 
19 | N#CC(I)CS(=O)(=O)c1ccccc1 (centres undefined) | 3.11 | 19.4 | 4.51 | 28.3 | 28.4 | 4.69 | 32.5 | > 100 | 36 | > 100 | 1.66 | 5.48 | 2 | 14.8 | 14.6 µM | 2.01 | 18.2 | > 100 µM | 15.6 | > 100
20 | O=C(CC(=O)Nc1ccccc1)NNC(Sc1ccccc1)c1cc(N=Nc2ccc(Br)cc2)ccc1O (centres undefined) | 2.81 | > 10 | > 10 | > 10 | 3.47 | > 10 | 7.91 | > 10 | > 10 | > 10 |  |  |  |  |  |  |  |  |  | 
21 | NNc1ncnc2nc[nH]c12 | 15.9 | > 100 | > 100 | > 100 | > 100 | > 100 | > 100 | 28.4 | > 100 | > 100 | 2.25 | 4.58 | 4.36 | 2.89 | 2.76 µM | 3.79 | 21.2 | 2.63 µM | 24.7 | 10.9
22 | COc1cc2c(cc1OCCCN1CCN(CCCOc3cc4c(cc3OC)C(=O)N3CC(F)(F)C[C@H]3C=N4)CC1)N=C[C@@H]1CC(F)(F)CN1C2=O | 22.4 | 36.7 | > 100 | 4.83 | 16.5 | 33.7 | 9.15 | > 100 | 21.1 | 14.3 | 3.59 | 16.2 | 3.61 | 1.89 | 3.25 µM | 12.7 | 3.05 | 8.64 µM | 5.52 | 3.36
23 | O=[N+]([O-])c1cccnc1N=Nc1c(O)[nH]c2ccccc12 | 40 | 16.5 | 26 | 25.7 | 58.1 | 73 | 12.7 | 69.5 | 44.3 | > 100 |  |  |  |  |  |  |  |  |  | 
24 | NC(N)=Nc1nc2ccccc2o1 | > 100 | > 100 | > 100 | > 100 | > 100 | > 100 | > 100 | > 100 | > 100 | > 100 | > 100 | > 100 | > 100 | > 100 | > 100 µM | > 100 | > 100 | > 100 µM | > 100 | > 100
25 | COC(=O)C1=CN(CC2=CC(=O)C(C)=CC2=O)C=C(C(=O)OC)C1c1ccccc1OC | 66 | 39.2 | > 100 | 42.9 | 32.7 | > 67.4 | 60.3 | > 100 | > 100 | 46.7 | 22.8 | 18.9 | 40.9 | 21.4 | 17.3 µM | 22.5 | 21.2 | > 100 µM | > 100 | 20
26 | Cc1nc2c(Br)cc(Br)cc2c(=O)n1-c1nnc(-c2cccc(Cl)c2Cl)c(N)n1 | 34.9 | 50.9 | > 100 | 39.9 | 22.7 | > 100 | 60 | > 100 | > 100 | 72.5 | 12.8 | 15.4 | 30.3 | 12.9 | 4.8 µM | 84.5 | 21.6 | 24.9 µM | 33.6 | 21.7
27 | CCOc1c(OC)cc(-c2nc3n(n2)C(=O)C(CC)S3)cc1OC (centres undefined) | > 10 | > 10 | > 10 | > 10 | > 10 | > 10 | > 10 | > 10 | > 10 | > 10 |  |  |  |  |  |  |  |  |  | 
28 | CCCCCCCC(=O)OCC1OC(n2cc(F)c(=O)[nH]c2=O)C(N)C(OC(=O)CCCCCCC)C1O (centres undefined) | 34.6 | 34.2 | 33.4 | 32.5 | 32.2 | 29 | 36.1 | 93.8 | 28.4 | 33.6 |  |  |  |  |  |  |  |  |  | 
29 | CCC(C)(C)n1c(C)nc2c1C(=O)c1ccccc1C2=O | 35.8 | > 100 | > 100 | 47.3 | > 100 | > 100 | > 100 | > 100 | > 100 | > 100 |  |  |  |  |  |  |  |  |  | 
30 | Nc1c(C(=O)Nc2ccccn2)sc2nc3c(cc12)C(=O)CCC3 | > 100 | > 100 | > 100 | > 100 | > 100 | > 100 | 5.65 | > 100 | 22.2 | > 100 | 0.52 | 0.812 | 0.47 | 4.18 | 0.483 µM | 6.26 | 1.17 | 1.41 µM | 0.646 | 1.34
31 | Cc1cc(C)nc(NS(=O)(=O)c2ccc(Nc3c4ccccc4nc4c(C(=O)N5CCN(CCO)CC5)cccc34)cc2)n1 | > 100 | > 100 | > 100 | > 100 | > 100 | > 100 | > 100 | > 100 | > 100 | > 100 |  |  |  |  |  |  |  |  |  | 
32 | CN(C)CCNC(=O)Cc1ccccc1Nc1c(Cl)cccc1Cl | 31.2 | 29.6 | 23.5 | 26.8 | 33.9 | 50.6 | 31.5 | 33.4 | 27.4 | 23.6 |  |  |  |  |  |  |  |  |  | 
33 | C=C(CN(C)Cc1ccccc1)c1ccc(NC(=O)c2ccc(C(=C)CN(C)Cc3ccccc3)cc2)cc1 | > 100 | > 100 | > 100 | > 100 | > 100 | 38.6 | > 100 | > 100 | 32.2 | 45.7 | 31.7 | 76.5 | > 100 | 94.8 | > 100 µM | 17.6 | 68.8 | 33.7 µM | 13.9 | 20.7

Source: PubChem BioAssay (NCI)
